≈ marks a conversion by molar mass, not a printed value. Calls of active or inactive are those of the source. No cut-off for these calls is given here.
Columns and labels:
Hepatitis C virus [1] = assay: Antiviral activity against Hepatitis C virus infected in HEK293 cell expressing sip-L protein; format: functional, organism-based, Hepacivirus hominis
Hepatitis C virus [2] = assay: Antiviral activity against Hepatitis C virus infected in HEK293 cell expressing sip-L protein assessed viral RNA level; format: functional, organism-based, Hepacivirus hominis
Hepatitis C virus [3] = assay: Antiviral activity against Hepatitis C virus infected in Ava5 cell assessed as suppression of HCV replication at 0.6 ug/ml; format: functional, organism-based; details: Hepacivirus hominis
Hepatitis C virus [4] = assay: Antiviral activity against Hepatitis C virus infected in Ava5 cell assessed as suppression of HCV replication at 0.06 ug/ml; format: functional, organism-based; details: Hepacivirus hominis
Hepatitis C virus [5] = assay: Antiviral activity against Hepatitis C virus infected in Ava5 cell assessed as suppression of HCV replication at 6 ug/ml; format: functional, organism-based; details: Hepacivirus hominis

- IC50 (Hepatitis C virus [1]): 350 µg/mL (≈ 1170 µM)
- EC50 (Hepatitis C virus [2]): 0.8 µg/mL (≈ 2.66 µM)
Structure (SMILES): C[C@@]1(F)[C@H](O)[C@@H](CO)O[C@H]1n1cc(F)c2c(N)ncnc21
- Activity (Hepatitis C virus [3]): Active
- Activity (Hepatitis C virus [4]): inactive
- Activity (Hepatitis C virus [5]): Active
